Source: patent publication US20260062422A1 (Halda Therapeutics OpCo, Inc., priority 2022, published 2026)

Columns and labels:
[1] = tested on: T-Rex 293 cell line SC3 cells having increased expression of androgen receptor protein due to exposure to doxycycline; assay: Cellular growth inhibition, T-Rex 293 SC3 cells with doxycycline (androgen receptor induced), CellTiter-Glo; assay type: cell-based; details: T-Rex 293 SC3 cells with 10 ng/mL doxycycline (increased androgen receptor expression)
How it was run: (§1)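 With DMSO (0.5%) vehicle as negative control, compounds treated SC3 cells for 72 h in medium containing charcoal-dextran FBS ± doxycycline. This T-Rex 293 clone expresses transfected wild-type AR on induction. Readout: CellTiter-Glo 2.0; GI50 by nonlinear regression.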

VCaP cells = assay: Cellular growth inhibition assay for VCaP cells, CellTiter-Glo; assay type: cell-based, human; details: 72 hours treatment, CellTiter-Glo 2.0
How it was run: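 GI50 values come from four-parameter curve fits of luminescence data normalized to a zero baseline. Compound, in medium with 0.5% DMSO, was added one day after plating and left for 72 h before CellTiter-Glo 2.0 addition.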

T47D cells = assay: Cellular growth inhibition assay for T47D cells, CellTiter-Glo; assay type: cell-based, human; details: 72 hours treatment, CellTiter-Glo 2.0 cell viability
How it was run: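 Luminescence from CellTiter-Glo 2.0 after 72 h of compound exposure gives the viability signal. Cells grew in insulin-supplemented (0.2 units/mL) DMEM with 10% FBS and were treated one day after seeding at 0.5% DMSO. GI50 values come from four-parameter nonlinear regression.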

[2] = tested on: T-Rex 293 cell line SC3 cells lacking increased expression of androgen receptor protein; assay: Cellular growth inhibition, T-Rex 293 SC3 cells without doxycycline, CellTiter-Glo; assay type: cell-based; details: T-Rex 293 SC3 cells not exposed to doxycycline, CellTiter-Glo 2.0
How it was run: as §1

Structure (SMILES) | GI50 ([1]; 72 h) | GI50 (VCaP cells; Homo sapiens, VCaP, 72 h) | GI50 (T47D cells; Homo sapiens, T47D, 72 h) | GI50 ([2]; 72 h) | GI50 ([1]; 72 hours) | GI50 (VCaP cells) | GI50 (T47D cells) | GI50 ([2]; 72 hours)
CCNC(=O)C[C@@H]1N=C(c2ccc(OC3CC(OC4CCN(c5ncc(C(=O)N[C@H]6C(C)(C)[C@H](Oc7ccc(C#N)c(Cl)c7)C6(C)C)cn5)CC4)C3)cc2)c2c(sc(C)c2C)-n2c(C)nnc21 (some centres unmarked) [Compound I-72] | < 500 nM | < 500 nM | < 500 nM | 500 to 1500 nM | – | – | – | –
CC[C@@H]1N=C(c2ccc(C#CC3CC4(C3)CN(c3ncc(C(=O)N[C@H]5C(C)(C)[C@H](Oc6ccc(C#N)c(Cl)c6)C5(C)C)cn3)C4)cc2)c2c(sc(C)c2C)-n2c(C)nnc21 [Compound I-576] | < 500 nM | 500 to 1500 nM | < 500 nM | 500 to 1500 nM | – | – | – | –
Cc1sc2c(c1C)C(c1ccc(C(=O)N3CCN(Cc4ncc(C(=O)N[C@H]5C(C)(C)[C@H](Oc6ccc(C#N)c(Cl)c6)C5(C)C)cn4)CC3)cc1)=N[C@H](Cc1ncco1)c1nnc(C)n1-2 [Compound I-328] | 1500 to 3000 nM | > 3000 nM | 1500 to 3000 nM | > 3000 nM | – | – | – | –
Cc1sc2c(c1C)C(c1ccc(CCN3CC[C@@]4(C3)CN(c3ncc(C(=O)N[C@H]5C(C)(C)[C@H](Oc6ccc(C#N)c(Cl)c6)C5(C)C)cn3)CCO4)cc1)=N[C@@H](Cc1ncco1)c1nnc(C)n1-2 [Compound I-243] | < 500 nM | < 500 nM | < 500 nM | < 500 nM | – | – | – | –
Cc1sc2c(c1C)C(c1ccc(N3CCC4(CC3)CCN(c3ncc(C(=O)N[C@H]5C(C)(C)[C@H](Oc6ccc(C#N)c(Cl)c6)C5(C)C)cn3)C4)cc1)=NC(Cc1ncco1)c1nnc(C)n1-2 (some centres unmarked) [Compound I-643] | < 500 nM | < 500 nM | < 500 nM | < 500 nM | – | – | – | –
Cc1sc2c(c1C)C(c1ccc(C(=O)N3CCC(N(C)c4ncc(C(=O)N[C@H]5C(C)(C)[C@H](Oc6ccc(C#N)c(Cl)c6)C5(C)C)cn4)CC3)cc1)=N[C@H](Cc1ncco1)c1nnc(C)n1-2 [Compound I-294] | < 500 nM | 1500 to 3000 nM | 500 to 1500 nM | > 3000 nM | – | – | – | –
Cc1sc2c(c1C)C(c1ccc(COC3CCN(c4ncc(C(=O)N[C@H]5C(C)(C)[C@H](Oc6ccc(C#N)c(Cl)c6)C5(C)C)cn4)CC3)cc1)=N[C@@H](C)c1nnc(C)n1-2 [Compound I-347] | > 3000 nM | > 3000 nM | > 3000 nM | > 3000 nM | – | – | – | –
Cc1sc2c(c1C)C(c1ccc(-c3conc3OC3CCN(c4ncc(C(=O)N[C@H]5C(C)(C)[C@H](Oc6ccc(C#N)c(Cl)c6)C5(C)C)cn4)CC3)cc1)=N[C@@H](Cc1ncco1)c1nnc(C)n1-2 [Compound I-432] | < 500 nM | < 500 nM | > 3000 nM | > 3000 nM | – | – | – | –
Cc1sc2c(c1C)C(c1ccc(OCC[C@@H]3CCCN(c4ncc(C(=O)N[C@H]5C(C)(C)[C@H](Oc6ccc(C#N)c(Cl)c6)C5(C)C)cn4)C3)cc1)=N[C@@H](Cc1ncco1)c1nnc(C)n1-2 [Compound I-300] | < 500 nM | < 500 nM | < 500 nM | 500 to 1500 nM | – | – | – | –
Cc1sc2c(c1C)C(c1ccc(C#C[C@H]3C[C@@]4(CCCN(c5ncc(C(=O)N[C@H]6C(C)(C)[C@H](Oc7ccc(C#N)c(Cl)c7)C6(C)C)cn5)C4)C3)cc1)=N[C@@H](C)c1nnc(C)n1-2 [Compound I-379] | – | – | – | – | < 500 nM | < 500 nM | > 3000 nM | > 3000 nM
Cc1sc2c(c1C)C(c1ccc(-c3cc(C4CCN(c5ncc(C(=O)N[C@H]6C(C)(C)[C@H](Oc7ccc(C#N)c(Cl)c7)C6(C)C)cn5)CC4)on3)cc1)=N[C@@H](Cc1ncco1)c1nnc(C)n1-2 [Compound I-453] | < 500 nM | < 500 nM | < 500 nM | > 3000 nM | – | – | – | –
Cc1sc2c(c1C)C(c1ccc(-n3ccc(C4CCN(c5ncc(C(=O)N[C@H]6C(C)(C)[C@H](Oc7ccc(C#N)c(Cl)c7)C6(C)C)cn5)CC4)n3)cc1)=N[C@@H](Cc1ncco1)c1nnc(C)n1-2 [Compound I-441] | < 500 nM | < 500 nM | < 500 nM | 500 to 1500 nM | – | – | – | –
Cc1sc2c(c1C)C(c1ccc(OC3CC4(CCN(c5ncc(C(=O)N[C@H]6C(C)(C)[C@H](Oc7ccc(C#N)c(Cl)c7)C6(C)C)cn5)CC4)C3)cc1)=N[C@H](Cc1nnn(C)n1)c1nnc(C)n1-2 [Compound I-219] | < 500 nM | > 3000 nM | > 3000 nM | > 3000 nM | – | – | – | –
Cc1sc2c(c1C)C(c1ccc(CC[C@@H]3CCCN(c4ncc(C(=O)N[C@H]5C(C)(C)[C@H](Oc6ccc(C#N)c(Cl)c6)C5(C)C)cn4)C3)cc1)=N[C@@H](Cc1ncco1)c1nnc(C)n1-2 [Compound I-299] | < 500 nM | < 500 nM | 1500 to 3000 nM | 500 to 1500 nM | – | – | – | –
Cc1sc2c(c1C)C(c1ccc(OC[C@H]3CC[C@]4(CCCN(c5ncc(C(=O)N[C@H]6C(C)(C)[C@H](Oc7ccc(C#N)c(Cl)c7)C6(C)C)cn5)C4)C3)cc1)=N[C@@H](Cc1ncco1)c1nnc(C)n1-2 [Compound I-204] | < 500 nM | 500 to 1500 nM | < 500 nM | > 3000 nM | – | – | – | –
Cc1sc2c(c1C)C(c1ccc(OC3CC4(C3)CC3(CCN(c5ccc(C(=O)N[C@H]6C(C)(C)[C@H](Oc7ccc(C#N)c(Cl)c7)C6(C)C)cn5)CC3)C4)cc1)=N[C@@H](C)c1nnc(C)n1-2 [Compound I-550] | < 500 nM | < 500 nM | < 500 nM | > 3000 nM | – | – | – | –
Cc1sc2c(c1C)C(c1ccc(OC3CC4(CCN(c5ncc(C(=O)N[C@H]6C(C)(C)[C@H](Oc7ccc(C#N)c(Cl)c7)C6(C)C)cn5)CC4)C3)cc1)=N[C@](C)(C(C)c1ncco1)c1nnc(C)n1-2 (some centres unmarked) [Compound I-273] | < 500 nM | > 3000 nM | > 3000 nM | > 3000 nM | – | – | – | –
Cc1sc2c(c1C)C(c1ccc(CCCOC3CCN(c4ncc(C(=O)N[C@H]5C(C)(C)[C@H](Oc6ccc(C#N)c(Cl)c6)C5(C)C)cn4)CC3)cc1)=N[C@@H](Cc1cnccn1)c1nnc(C)n1-2 [Compound I-277] | < 500 nM | > 3000 nM | > 3000 nM | > 3000 nM | – | – | – | –
Cc1sc2c(c1C)C(c1ccc(CC3CC4(CCN(c5ccc(C(=O)N[C@H]6C(C)(C)[C@H](Oc7ccc(C#N)c(Cl)c7)C6(C)C)cn5)CC4)C3)cc1)=N[C@@H](Cc1ncco1)c1nnc(C)n1-2 [Compound I-548] | < 500 nM | 500 to 1500 nM | < 500 nM | < 500 nM | – | – | – | –
Cc1sc2c(c1C)C(c1ccc(OC[C@H]3CC[C@@]4(CCCN(c5ncc(C(=O)N[C@H]6C(C)(C)[C@H](Oc7ccc(C#N)c(Cl)c7)C6(C)C)cn5)C4)C3)cc1)=N[C@@H](Cc1ncco1)c1nnc(C)n1-2 [Compound I-203] | < 500 nM | < 500 nM | < 500 nM | > 3000 nM | – | – | – | –
Cc1sc2c(c1C)C(c1ccc(N3CCCC(C(=O)N4CCC[C@H](c5ncc(C(=O)N[C@H]6C(C)(C)[C@H](Oc7ccc(C#N)c(Cl)c7)C6(C)C)cn5)C4)C3)cc1)=N[C@@H](Cc1ncco1)c1nnc(C)n1-2 (some centres unmarked) [Compound I-336] | < 500 nM | 500 to 1500 nM | < 500 nM | 500 to 1500 nM | – | – | – | –
Cc1sc2c(c1C)C(c1ccc([C@H]3CC[C@]4(C3)CN(c3ncc(C(=O)N[C@H]5C(C)(C)[C@H](Oc6ccc(C#N)c(Cl)c6)C5(C)C)cn3)CCO4)cc1)=N[C@@H](Cc1ncco1)c1nnc(C)n1-2 [Compound I-404] | > 3000 nM | > 3000 nM | > 3000 nM | > 3000 nM | – | – | – | –
Cc1sc2c(c1C)C(c1ccc(CCN3CC[C@]4(C3)CN(c3ncc(C(=O)N[C@H]5C(C)(C)[C@H](Oc6ccc(C#N)c(Cl)c6)C5(C)C)cn3)CC(F)(F)C4)cc1)=N[C@@H](Cc1ncco1)c1nnc(C)n1-2 [Compound I-424] | < 500 nM | < 500 nM | < 500 nM | > 3000 nM | – | – | – | –
